Counter-ions that a name gives are not always drawn.
Biological target: α7-subtype of nicotinic receptors (Rattus norvegicus, UniProt Q05941)
Assay: biochemical
Format: binding

Sequence of α7-subtype of nicotinic receptors (Q05941 23-502): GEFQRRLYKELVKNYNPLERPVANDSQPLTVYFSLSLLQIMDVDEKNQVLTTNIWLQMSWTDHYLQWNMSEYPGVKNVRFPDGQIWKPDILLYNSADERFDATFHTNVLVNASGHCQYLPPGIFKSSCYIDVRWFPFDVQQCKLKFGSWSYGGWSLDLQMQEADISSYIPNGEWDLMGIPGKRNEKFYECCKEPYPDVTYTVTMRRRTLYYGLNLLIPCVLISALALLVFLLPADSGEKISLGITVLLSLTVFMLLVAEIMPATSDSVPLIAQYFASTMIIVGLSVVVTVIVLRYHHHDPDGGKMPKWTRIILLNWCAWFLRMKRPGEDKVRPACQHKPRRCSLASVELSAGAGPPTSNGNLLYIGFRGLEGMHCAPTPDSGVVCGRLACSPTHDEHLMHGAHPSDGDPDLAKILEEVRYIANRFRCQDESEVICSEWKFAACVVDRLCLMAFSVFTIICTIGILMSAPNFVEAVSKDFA

c1csc(-c2cnc(N3CCN4CCC3CC4)nc2)c1 [Compound A1, 4-(5-Thiophen-2-yl-pyrimidin-2-yl)-1,4-diaza-bicyclo[3.2.2]nonane hydrochloric acid salt]
IC50: < 100 nM

— patent US20100286128A1 (priority 2007, published 2010)
